US10058550B2, “Methods of treating heart failure” (priority 2015, dated 2018)

target: human APJ receptor (Homo sapiens (Human), UniProt P35414); experiment: biochemical; type: biochemical; conditions: read-out: Activity hAPJ SPA EC50 IP
Outline: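 Agonist-stimulated [35S]GTPγS (0.2 nM) binding was read by SPA after 90 min at room temperature. Buffer: 20 mM HEPES pH 7.5 with 5 mM MgCl2, 200 mM NaCl, 3 μM GDP, 0.1% BSA; membranes were from a stable human APJ CHO line. EC50 values are averages of independent runs, fitted by non-linear regression.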

Chain of human APJ receptor (P35414 whole entry): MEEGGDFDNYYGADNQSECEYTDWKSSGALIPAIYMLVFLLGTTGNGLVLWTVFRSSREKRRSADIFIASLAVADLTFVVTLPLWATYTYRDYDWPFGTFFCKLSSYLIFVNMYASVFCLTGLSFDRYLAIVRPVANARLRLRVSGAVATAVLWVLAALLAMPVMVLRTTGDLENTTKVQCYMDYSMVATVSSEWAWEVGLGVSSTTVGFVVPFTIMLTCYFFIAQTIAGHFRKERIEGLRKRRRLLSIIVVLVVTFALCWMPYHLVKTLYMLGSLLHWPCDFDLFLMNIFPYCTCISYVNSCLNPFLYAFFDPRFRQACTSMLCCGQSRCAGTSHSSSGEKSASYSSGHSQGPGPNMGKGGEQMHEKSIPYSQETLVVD

Row | SMILES | EC50
1 | COc1cccc(OC)c1-n1c(NS(=O)(=O)[C@@H]2C[C@@H](OC)CN(c3ncc(F)cn3)C2)nnc1-c1cccnc1 (stereo in doubt) [Example 819.0, (3S,5S)-N-(4-(2,6-dimethoxyphenyl)-5-(3-pyridinyl)-4H-1,2,4-triazol-3-yl)-1-(5-fluoro-2-pyrimidinyl)-5-methoxy-3-piperidinesulfonamide, (3R,5R)-N-(4-(2,6-dimethoxyphenyl)-5-(3-pyridinyl)-4H-1,2,4-triazol-3-yl)-1-(5-fluoro-2-pyrimidinyl)-5-methoxy-3-piperidinesulfonamide] | 33 nM
2 | COc1cccc(OC)c1-n1c(NS(=O)(=O)[C@H](C)[C@H](OC(C)C)c2cn3ccccc3n2)nnc1-c1cccnc1 (stereo in doubt) [Example 827.0, (1R,2R)-N-(4-(2,6-dimethoxyphenyl)-5-(3-pyridinyl)-4H-1,2,4-triazol-3-yl)-1-imidazo[1,2-a]pyridin-2-yl-1-(1-methylethoxy)-2-propanesulfonamide, (1S,2S)-N-(4-(2,6-dimethoxyphenyl)-5-(3-pyridinyl)-4H-1,2,4-triazol-3-yl)-1-imidazo[1,2-a]pyridin-2-yl-1-(1-methylethoxy)-2-propanesulfonamide] | 10 nM
3 | COc1cccc(OC)c1-n1c(NS(=O)(=O)[C@H](C)[C@H](OC(C)C)c2cn3ccccc3n2)nnc1-c1cccnc1 (stereo in doubt) [Example 828.0, (1R,2R)-N-(4-(2,6-dimethoxyphenyl)-5-(3-pyridinyl)-4H-1,2,4-triazol-3-yl)-1-imidazo[1,2-a]pyridin-2-yl-1-(1-methylethoxy)-2-propanesulfonamide, (1S,2S)-N-(4-(2,6-dimethoxyphenyl)-5-(3-pyridinyl)-4H-1,2,4-triazol-3-yl)-1-imidazo[1,2-a]pyridin-2-yl-1-(1-methylethoxy)-2-propanesulfonamide] | 480 nM
4 | COc1cccc(-c2nnc(NS(C)(=O)=O)n2-c2c(OC)cccc2OC)n1 [Example 4.02, N-(4-(2,6-dimethoxyphenyl)-5-(6-methoxypyridin-2-yl)-4H-1,2,4-triazol-3-yl)methanesulfonamide] | 220 nM
5 | CCS(=O)(=O)Nc1nnc(-c2cccc(OC)n2)n1-c1c(OC)cccc1OC [Example 29.0, N-(4-(2,6-dimethoxyphenyl)-5-(6-methoxypyridin-2-yl)-4H-1,2,4-triazol-3-yl)ethanesulfonamide] | 150 nM
6 | CCS(=O)(=O)Nc1nnc(-c2cccc(C)n2)n1-c1c(OC)cccc1OC [Example 30.0, N-(4-(2,6-dimethoxyphenyl)-5-(6-methylpyridin-2-yl)-4H-1,2,4-triazol-3-yl)ethanesulfonamide] | 830 nM
7 | COc1cccc(-c2nnc(NS(=O)(=O)[C@@H](C)[C@H](OC)c3ncc(C)cn3)n2-c2cccnc2)n1 [Example 33.0, (1R,2S)-1-methoxy-N-(5-(6-methoxypyridin-2-yl)-4-(pyridin-3-yl)-4H-1,2,4-triazol-3-yl)-1-(5-methylpyrimidin-2-yl)propane-2-sulfonamide] | 56 nM
8 | COc1cccc(-c2nnc(NS(=O)(=O)[C@@H](C)[C@H](OC)c3ncc(C)cn3)n2-c2ccccc2)n1 [Example 34.0, (1R,2S)-1-methoxy-N-(5-(6-methoxypyridin-2-yl)-4-phenyl-4H-1,2,4-triazol-3-yl)-1-(5-methylpyrimidin-2-yl)propane-2-sulfonamide] | 4.2 nM
9 | COc1cccc(-c2nnc(NS(=O)(=O)[C@@H](C)[C@H](OC)c3ncc(C)cn3)n2-c2c(OC)ncnc2OC)n1 [Example 35.0, (1R,2S)-N-(4-(4,6-dimethoxypyrimidin-5-yl)-5-(6-methoxypyridin-2-yl)-4H-1,2,4-triazol-3-yl)-1-methoxy-1-(5-methylpyrimidin-2-yl)propane-2-sulfonamide] | 0.54 nM
10 | COc1cccc(-c2nnc(NS(=O)(=O)[C@@H](C)[C@H](OC)c3ncc(C)cn3)n2-c2cc(C(F)(F)F)cc(C(F)(F)F)c2)n1 [Example 39.0, (1R,2S)-N-(4-(3,5-bis(trifluoromethyl)phenyl)-5-(6-methoxypyridin-2-yl)-4H-1,2,4-triazol-3-yl)-1-methoxy-1-(5-methylpyrimidin-2-yl)propane-2-sulfonamide] | 540 nM
11 | COc1cccc(-c2nnc(NS(=O)(=O)[C@@H](C)[C@H](OC)c3ncc(C)cn3)n2-c2c(OC(F)F)cccc2OC(F)F)n1 [Example 41.0, (1R,2S)-N-(4-(2,6-bis(difluoromethoxy)phenyl)-5-(6-methoxypyridin-2-yl)-4H-1,2,4-triazol-3-yl)-1-methoxy-1-(5-methylpyrimidin-2-yl)propane-2-sulfonamide] | 0.22 nM
12 | COc1cccc(-c2nnc(NS(=O)(=O)[C@@H](C)[C@H](OC)c3ncc(C)cn3)n2-c2ccncc2)n1 [Example 42.0, (1R,2S)-1-methoxy-N-(5-(6-methoxypyridin-2-yl)-4-(pyridin-4-yl)-4H-1,2,4-triazol-3-yl)-1-(5-methylpyrimidin-2-yl)propane-2-sulfonamide] | 51 nM
13 | COc1cccc(-c2nnc(NS(=O)(=O)[C@@H](C)[C@H](OC)c3ncc(C)cn3)n2-c2ccc(Cl)cc2)n1 [Example 45.0, (1R,2S)-N-(4-(4-chlorophenyl)-5-(6-methoxy-2-pyridinyl)-4H-1,2,4-triazol-3-yl)-1-methoxy-1-(5-methyl-2-pyrimidinyl)-2-propanesulfonamide] | 96 nM
14 | COc1ccc(-n2c(NS(=O)(=O)[C@@H](C)[C@H](OC)c3ncc(C)cn3)nnc2-c2cccc(OC)n2)cc1 [Example 46.0, (1R,2S)-1-methoxy-N-(4-(4-methoxyphenyl)-5-(6-methoxy-2-pyridinyl)-4H-1,2,4-triazol-3-yl)-1-(5-methyl-2-pyrimidinyl)-2-propanesulfonamide] | 75 nM
15 | COc1cccc(-c2nnc(NS(=O)(=O)[C@@H](C)[C@H](OC)c3ncc(C)cn3)n2-c2cccc(F)c2)n1 [Example 47.0, (1R,2S)-N-(4-(3-fluorophenyl)-5-(6-methoxy-2-pyridinyl)-4H-1,2,4-triazol-3-yl)-1-methoxy-1-(5-methyl-2-pyrimidinyl)-2-propanesulfonamide] | 8.8 nM
16 | CCO[C@H](c1ncc(F)cn1)[C@H](C)S(=O)(=O)Nc1nnc(-c2cccc(OC)n2)n1-c1c(OC)cccc1OC [Example 48.0, (1R,2S)-N-(4-(2,6-dimethoxyphenyl)-5-(6-methoxy-2-pyridinyl)-4H-1,2,4-triazol-3-yl)-1-ethoxy-1-(5-fluoro-2-pyrimidinyl)-2-propanesulfonamide] | 0.18 nM
17 | COc1cnc([C@@H](OC)[C@H](C)S(=O)(=O)Nc2nnc(-c3cccc(OC)n3)n2-c2c(OC)cccc2OC)nc1 [Example 49.0, (1R,2S)-N-(4-(2,6-dimethoxyphenyl)-5-(6-methoxy-2-pyridinyl)-4H-1,2,4-triazol-3-yl)-1-methoxy-1-(5-methoxy-2-pyrimidinyl)-2-propanesulfonamide] | 0.17 nM
18 | CCO[C@H](c1ncc(F)cn1)[C@H](C)S(=O)(=O)Nc1nnc(-c2cccc(OC)n2)n1-c1ccccc1 [Example 50.0, (1R,2S)-1-ethoxy-1-(5-fluoro-2-pyrimidinyl)-N-(5-(6-methoxy-2-pyridinyl)-4-phenyl-4H-1,2,4-triazol-3-yl)-2-propanesulfonamide] | 9.3 nM
